Source: PubChem BioAssay AID256 (DTP/NCI, 2004)
Several values for one entry are separate records, joined by “and”; a condition that tells them apart may be missing. Equal values may be shown once. Toxic doses and inconclusive results are not listed.

System: CD2F1 mice, L1210 leukemia ip, survival T/C
Assay: NCI In Vivo Anticancer Drug Screen. Data for tumor model L1210 Leukemia (intraperitoneal) in CD2F1 (CDF1) mice
Conditions: higher = longer survival
How it was run: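 In this screen, transplantable tumors were grown in mice given either the compound or its vehicle. Results were expressed as the treated measurement relative to the control measurement.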

[1] = endpoint: mean survival time, dose: 25.0 mg/kg/injection, schedule: Q04DX002 (ip), vehicle: saline with Tween-80
[2] = endpoint: mean survival time, dose: 50.0 mg/kg/injection, schedule: Q04DX002 (ip), vehicle: saline with Tween-80
[3] = endpoint: mean survival time, dose: 100.0 mg/kg/injection, schedule: Q01DX001 (ip), vehicle: saline with Tween-80
[4] = endpoint: mean survival time, dose: 100.0 mg/kg/injection, schedule: Q01DX009 (ip), vehicle: saline with Tween-80
[5] = endpoint: mean survival time, dose: 100.0 mg/kg/injection, schedule: Q04DX002 (ip), vehicle: saline with Tween-80
[6] = endpoint: mean survival time, dose: 100.0 mg/kg/injection, schedule: Q04DX003 (ip), vehicle: saline with Tween-80
[7] = endpoint: mean survival time, dose: 200.0 mg/kg/injection, schedule: Q01DX001 (ip), vehicle: saline with Tween-80
[8] = endpoint: mean survival time, dose: 200.0 mg/kg/injection, schedule: Q01DX009 (ip), vehicle: saline with Tween-80
[9] = endpoint: mean survival time, dose: 200.0 mg/kg/injection, schedule: Q04DX002 (ip), vehicle: saline with Tween-80
[10] = endpoint: mean survival time, dose: 200.0 mg/kg/injection, schedule: Q04DX003 (ip), vehicle: saline with Tween-80
[11] = endpoint: mean survival time, dose: 400.0 mg/kg/injection, schedule: Q01DX009 (ip), vehicle: saline with Tween-80
[12] = endpoint: mean survival time, dose: 400.0 mg/kg/injection, schedule: Q04DX002 (ip), vehicle: saline with Tween-80
[13] = endpoint: mean survival time, dose: 400.0 mg/kg/injection, schedule: Q04DX003 (ip), vehicle: saline with Tween-80

C/C(=C\C(=O)Nc1ccc(S(=O)(=O)F)cc1)c1ccc([N+](=O)[O-])cc1
T/C [1]: 103 % of control and 104 % of control | T/C [2]: 96 % of control and 102 % of control | T/C [3]: 97 % of control | T/C [4]: 104 % of control and 106 % of control | T/C [5]: 100 % of control (2×) and 104 % of control | T/C [6]: 104 % of control | T/C [7]: 92 % of control | T/C [8]: 96 % of control | T/C [9]: 96 % of control and 102 % of control and 107 % of control | T/C [10]: 101 % of control | T/C (endpoint: mean survival time, dose: 400.0 mg/kg/injection, schedule: Q01DX001 (ip), vehicle: saline with Tween-80): 95 % of control | T/C [11]: 96 % of control and 100 % of control | T/C [12]: 98 % of control | T/C [13]: 93 % of control

CC(C)N(CCN(C)C(=O)C(O)(c1ccccc1)c1ccccc1)C(C)C
T/C (endpoint: mean survival time, dose: 50.0 mg/kg/injection, schedule: Q04DX003 (ip), vehicle: saline with Tween-80): 101 % of control | T/C [6]: 93 % of control and 98 % of control | T/C [10]: 104 % of control

COC(=O)C(C)C1(O)CCCCC1 (stereo unspecified)
T/C [6]: 97 % of control | T/C [10]: 95 % of control | T/C [13]: 98 % of control

COC(=O)C1CSCC1=O (stereo unspecified)
T/C (endpoint: mean survival time, dose: 50.0 mg/kg/injection, schedule: Q01DX001 (ip), vehicle: saline with Tween-80): 97 % of control | T/C [3]: 97 % of control | T/C [7]: 103 % of control

O=CCCOCCCl
T/C [6]: 103 % of control | T/C [10]: 95 % of control | T/C [13]: 100 % of control

CC(=O)OCC1OC(N2C(=O)/C(=C/c3ccc(Cl)cc3)SC2=S)C(OC(C)=O)C(OC(C)=O)C1OC(C)=O (stereo unspecified)
T/C (endpoint: mean survival time, dose: 3.13 mg/kg/injection, schedule: Q01DX005 (ip), vehicle: distilled water + Tween-80): 102 % of control | T/C (endpoint: mean survival time, dose: 6.25 mg/kg/injection, schedule: Q01DX005 (ip), vehicle: distilled water + Tween-80): 96 % of control | T/C (endpoint: mean survival time, dose: 12.5 mg/kg/injection, schedule: Q01DX005 (ip), vehicle: distilled water + Tween-80): 106 % of control | T/C (endpoint: mean survival time, dose: 25.0 mg/kg/injection, schedule: Q01DX005 (ip), vehicle: distilled water + Tween-80): 95 % of control

CCCN(CCC)CC(=O)Nc1c(Cl)cccc1Cl
T/C (endpoint: mean survival time, dose: 50.0 mg/kg/injection, schedule: Q01DX009 (ip), vehicle: saline sonified): 101 % of control | T/C (endpoint: mean survival time, dose: 100.0 mg/kg/injection, schedule: Q01DX009 (ip), vehicle: saline sonified): 96 % of control | T/C [6]: 105 % of control | T/C [10]: 105 % of control

CCOC(=O)C1C2CCC(O2)C1C#N (stereo unspecified)
T/C [1]: 98 % of control | T/C [2]: 98 % of control | T/C [5]: 98 % of control

CCOC(=O)c1c(C)csc1NC(C)=O
T/C [4]: 108 % of control | T/C [6]: 96 % of control | T/C [8]: 97 % of control | T/C [10]: 98 % of control | T/C [11]: 90 % of control | T/C [13]: 93 % of control

O=C1c2ccccc2C(=O)N1CC/C=C/c1ccc([N+](=O)[O-])cc1Cl
T/C [6]: 98 % of control | T/C [10]: 91 % of control | T/C [13]: 100 % of control

COc1cc2cc3c(c(O)c2c(O)c1/C=C/C(C)C)C(=O)CC(C)(OC(C)=O)C3 (stereo unspecified)
T/C (endpoint: median survival time, dose: 1.25 mg/kg/injection, schedule: Q01DX009 (ip), vehicle: Klucel (hydroxypropylcellulose) (HPC)): 105 % of control | T/C (endpoint: median survival time, dose: 2.5 mg/kg/injection, schedule: Q01DX009 (ip), vehicle: Klucel (hydroxypropylcellulose) (HPC)): 102 % of control | T/C (endpoint: median survival time, dose: 5.0 mg/kg/injection, schedule: Q01DX009 (ip), vehicle: Klucel (hydroxypropylcellulose) (HPC)): 113 % of control | T/C (endpoint: median survival time, dose: 10.0 mg/kg/injection, schedule: Q01DX009 (ip), vehicle: Klucel (hydroxypropylcellulose) (HPC)): 116 % of control and 121 % of control | T/C (endpoint: median survival time, dose: 20.0 mg/kg/injection, schedule: Q01DX009 (ip), vehicle: Klucel (hydroxypropylcellulose) (HPC)): 98 % of control and 105 % of control

C#CCOC(=O)Nc1ccccc1Cl
T/C (endpoint: mean survival time, dose: 100.0 mg/kg/injection, schedule: Q04DX003 (ip), vehicle: Klucel (hydroxypropylcellulose) (HPC)): 93 % of control | T/C (endpoint: mean survival time, dose: 200.0 mg/kg/injection, schedule: Q04DX003 (ip), vehicle: Klucel (hydroxypropylcellulose) (HPC)): 105 % of control | T/C (endpoint: mean survival time, dose: 400.0 mg/kg/injection, schedule: Q04DX003 (ip), vehicle: Klucel (hydroxypropylcellulose) (HPC)): 98 % of control

O=C(O)CCc1ccccc1CC(=O)O
T/C [6]: 98 % of control | T/C [10]: 98 % of control | T/C [13]: 97 % of control

CC(C)([NH-])C[NH-].O=C(O)CCO.[Pt+2]
T/C (endpoint: median survival time, dose: 20.0 mg/kg/injection, schedule: Q04DX003 (ip), vehicle: saline): 255 % of control | T/C (endpoint: median survival time, dose: 20.0 mg/kg/injection, schedule: Q04DX003 (ip), vehicle: water): 173 % of control | T/C (endpoint: median survival time, dose: 40.0 mg/kg/injection, schedule: Q04DX003 (ip), vehicle: saline): 232 % of control | T/C (endpoint: median survival time, dose: 40.0 mg/kg/injection, schedule: Q04DX003 (ip), vehicle: water): 170 % of control | T/C (endpoint: median survival time, dose: 80.0 mg/kg/injection, schedule: Q04DX003 (ip), vehicle: saline): 116 % of control | T/C (endpoint: median survival time, dose: 80.0 mg/kg/injection, schedule: Q04DX003 (ip), vehicle: water): 90 % of control

O=C(O)C(=O)C(O)C(O)C(O)CO.O=C(O)C(=O)C(O)C(O)C(O)CO.[NH-]C1CCCCC1[NH-].[Pt+2] (stereo unspecified)
T/C (endpoint: median survival time, dose: 3.12 mg/kg/injection, schedule: Q04DX003 (ip), vehicle: saline): 110 % of control and 111 % of control | T/C (endpoint: median survival time, dose: 6.25 mg/kg/injection, schedule: Q04DX003 (ip), vehicle: saline): 115 % of control and 112 % of control | T/C (endpoint: median survival time, dose: 12.5 mg/kg/injection, schedule: Q04DX003 (ip), vehicle: saline): 122 % of control | T/C (endpoint: median survival time, dose: 50.0 mg/kg/injection, schedule: Q04DX003 (ip), vehicle: saline): 185 % of control and 188 % of control | T/C (endpoint: median survival time, dose: 100.0 mg/kg/injection, schedule: Q04DX003 (ip), vehicle: saline): 250 % of control and 270 % of control | T/C (endpoint: median survival time, dose: 200.0 mg/kg/injection, schedule: Q04DX003 (ip), vehicle: saline): 175 % of control

CCCCCCC(C)Oc1ccccc1Cl (stereo unspecified)
T/C [5]: 107 % of control | T/C [9]: 86 % of control | T/C [12]: 96 % of control

CCCCCC1SC1CC1SC1CCCCCCCC(=O)N(CCCC)CCCC (stereo unspecified)
T/C (endpoint: mean survival time, dose: 75.0 mg/kg/injection, schedule: Q04DX003 (ip), vehicle: saline): 98 % of control | T/C (endpoint: mean survival time, dose: 150.0 mg/kg/injection, schedule: Q04DX003 (ip), vehicle: saline): 107 % of control | T/C (endpoint: mean survival time, dose: 300.0 mg/kg/injection, schedule: Q04DX003 (ip), vehicle: saline): 97 % of control

CC/C(=C/c1ccc2c(c1)OCO2)[N+](=O)[O-]
T/C [3]: 105 % of control
